Earlier results on four compounds are cited in patent US20040197891A1, “Removal of plasmin(ogen) from protein solutions” (priority 2001, published 2004).

Like-named read-outs stand apart in the source and are kept apart here.

Data set [1] concerns fibrinolytic activity of plasma.
Data set [2] deals with plasmin(ogen).
[3] abbreviates: plasma that has been heparinized oral blood.

For the compound `NCCCCCC(=O)O` [ε-amino-caproic acid, ε-amino caproic acid], the “inhibition (anti-fibrinolytic activity)” value is 65% in data set [1] (setting [3]) and 98% in data set [1] (urokinase-stimulated plasma).

Take `N=C(N)c1ccc(N)cc1` [PAMBA, p-amino benzamidine]: in data set [2], the “antifibrinolytic activity compared with EACA” value is “about three”.

As for `NC[C@H]1CC[C@H](C(=O)O)CC1` [tranexamic acid], the figures for the “inhibition (anti-fibrinolytic activity)” value in data set [1] (setting [3]) and in data set [1] (urokinase-stimulated plasma) were 39% and 91%, respectively.

Regarding `NCCCC[C@H](N)C(=O)O` [lysine], in data set [2], the antifibrinolytic potency entry is “very low”.
